Literature values as cited in US20250311721A1, “UREA COMPLEXES OF ACTIVE INGREDIENTS” (priority 2022, published 2025).

O=C(NCCc1ncc(C(F)(F)F)cc1Cl)c1ccccc1C(F)(F)F [Fluopyram]
solubility in DMSO (DMSO): > 250 mg/mL | solubility in ethyl acetate (ethyl acetate): > 250 mg/mL
